Earlier results in patent US7193081B2, “Process for preparation of cyclic prodrugs of PMEA and PMPA” (Metabasis Therapeutics, Inc., priority 2002, dated 2007).

Tests used:
hepatitis B = settings: against hepatitis B
HIV = settings: against HIV

Compound | antiviral activity (hepatitis B) | antiviral activity (HIV)
C[C@H](Cn1cnc2c(N)ncnc21)OCP(=O)(O)O [PMPA, (R)-9-(2-phosphonyl-methoxypropyl)adenine] | exhibit antiviral activity | exhibit antiviral activity
Nc1ncnc2c1ncn2CCOCP(=O)(O)O [PMEA, 9-(2-phosphonylmethoxyethyl)adenine] | exhibit antiviral activity | exhibit antiviral activity
